Experimental data as given in ChEMBL document CHEMBL5303761, “Data for DCP probe BI-3231” (2023).

Tests used:
[1] = molecular target: Cannabinoid receptor 1 (Homo sapiens) (UniProt P21554); assay: CB1(HU)_AGON Eurofins SafetyScreen44 (BI); conditions: filed as agonist; Compound concentration 10.0 uM
[2] = molecular target: Prostaglandin G/H synthase 2 (Homo sapiens) (UniProt P35354); assay: COX-2 Eurofins SafetyScreen44 (BI); conditions: Compound concentration 10.0 uM
[3] = molecular target: Adenosine receptor A2a (Homo sapiens) (UniProt P29274); assay: A2A/H Eurofins SafetyScreen44 (BI); conditions: filed as antagonist, Compound concentration 10.0 uM
[4] = molecular target: Angiotensin-converting enzyme (Homo sapiens) (UniProt P12821); assay: ACE(HU_AMTCH400) Eurofins SafetyScreen44 (BI); conditions: Compound concentration 10.0 uM
[5] = molecular target: Beta-2 adrenergic receptor (Homo sapiens) (UniProt P07550); assay: BETA2/HUM Eurofins SafetyScreen44 (BI); conditions: filed as antagonist, Compound concentration 10.0 uM
[6] = molecular target: Cannabinoid receptor 2 (Homo sapiens) (UniProt P34972); assay: CB2/PERIPH/H Eurofins SafetyScreen44 (BI); conditions: Compound concentration 10.0 uM
[7] = molecular target: Cholecystokinin receptor type A (Homo sapiens) (UniProt P32238); assay: CCKA/H Eurofins SafetyScreen44 (BI); conditions: Compound concentration 10.0 uM
[8] = molecular target: D(1A) dopamine receptor (Homo sapiens) (UniProt P21728); assay: D1/H Eurofins SafetyScreen44 (BI); conditions: filed as antagonist, Compound concentration 10.0 uM
[9] = molecular target: Sodium-dependent dopamine transporter (Homo sapiens) (UniProt Q01959); assay: DATRANS/HUM Eurofins SafetyScreen44 (BI); conditions: Compound concentration 10.0 uM
[10] = molecular target: Delta-type opioid receptor (Homo sapiens) (UniProt P41143); assay: DELTA2/H Eurofins SafetyScreen44 (BI); conditions: Compound concentration 10.0 uM
[11] = molecular target: Endothelin-1 receptor (Homo sapiens) (UniProt P25101); assay: ETA/H Eurofins SafetyScreen44 (BI); conditions: Compound concentration 10.0 uM
[12] = molecular target: Glutamate NMDA receptor (Rattus norvegicus) (UniProt P35439+Q00959+Q00960+Q00961+Q62645+Q8VHN2+Q9R1M7); assay: NMDA/R Eurofins SafetyScreen44 (BI); assay type: protein-complex assay; conditions: Compound concentration 10.0 uM
[13] = molecular target: Neuronal acetylcholine receptor; alpha4/beta2 (Homo sapiens) (UniProt P17787+P43681); assay: N_NEURO_A4B2 Eurofins SafetyScreen44 (BI); assay type: protein-complex assay; conditions: filed as agonist, Compound concentration 10.0 uM
[14] = molecular target: Sodium-dependent serotonin transporter (Homo sapiens) (UniProt P31645); assay: SLC6A4/H Eurofins SafetyScreen44 (BI); conditions: filed as antagonist, Compound concentration 10.0 uM
[15] = molecular target: Vasopressin V1a receptor (Homo sapiens) (UniProt P37288); assay: V1A/HUM Eurofins SafetyScreen44 (BI); conditions: Compound concentration 10.0 uM
[16] = molecular target: 5-hydroxytryptamine receptor 2B (Homo sapiens) (UniProt P41595); conditions: Compound concentration 10.0 uM
[17] = molecular target: T1, 5-hydroxytryptamine receptor 3A (Homo sapiens) (UniProt P46098); conditions: Compound concentration 10.0 uM
T1 sequence (whole entry): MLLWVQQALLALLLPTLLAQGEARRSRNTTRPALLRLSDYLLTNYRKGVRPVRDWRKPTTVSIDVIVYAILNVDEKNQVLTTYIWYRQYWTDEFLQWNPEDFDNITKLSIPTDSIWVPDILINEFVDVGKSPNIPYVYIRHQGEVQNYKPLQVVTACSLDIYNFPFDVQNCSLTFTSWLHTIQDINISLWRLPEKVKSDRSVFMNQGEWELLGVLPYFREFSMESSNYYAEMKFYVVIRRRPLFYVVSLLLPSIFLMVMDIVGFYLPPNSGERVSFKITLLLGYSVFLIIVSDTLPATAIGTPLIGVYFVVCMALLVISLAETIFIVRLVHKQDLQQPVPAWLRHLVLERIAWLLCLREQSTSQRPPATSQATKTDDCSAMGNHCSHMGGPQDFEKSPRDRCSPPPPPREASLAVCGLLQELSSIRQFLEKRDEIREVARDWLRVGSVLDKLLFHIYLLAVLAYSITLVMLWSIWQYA

[18] = molecular target: 5-hydroxytryptamine receptor 7 (Homo sapiens) (UniProt P34969); conditions: Compound concentration 10.0 uM
[19] = molecular target: Histamine H2 receptor (Homo sapiens) (UniProt P25021); conditions: Compound concentration 10.0 uM
[20] = molecular target: Histamine H4 receptor (Homo sapiens) (UniProt Q9H3N8); conditions: Compound concentration 10.0 uM
[21] = molecular target: T2, Alpha-1A adrenergic receptor (Homo sapiens) (UniProt P35348); conditions: Compound concentration 10.0 uM
T2 sequence (whole entry): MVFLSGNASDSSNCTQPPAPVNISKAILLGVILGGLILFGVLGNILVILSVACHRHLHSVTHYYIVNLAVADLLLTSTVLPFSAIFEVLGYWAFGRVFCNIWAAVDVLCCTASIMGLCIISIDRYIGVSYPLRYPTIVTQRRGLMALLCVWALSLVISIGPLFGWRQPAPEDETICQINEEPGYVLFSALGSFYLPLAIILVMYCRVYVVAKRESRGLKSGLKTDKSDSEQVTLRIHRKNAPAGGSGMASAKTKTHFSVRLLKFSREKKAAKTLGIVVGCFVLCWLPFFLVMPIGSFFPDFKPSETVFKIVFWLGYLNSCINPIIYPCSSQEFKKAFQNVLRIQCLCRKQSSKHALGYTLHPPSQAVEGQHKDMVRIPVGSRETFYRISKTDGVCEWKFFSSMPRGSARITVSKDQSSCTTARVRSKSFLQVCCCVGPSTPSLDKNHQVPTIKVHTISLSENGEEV

[22] = molecular target: T3, Muscarinic acetylcholine receptor M2 (Homo sapiens) (UniProt P08172); conditions: Compound concentration 10.0 uM
T3 sequence (whole entry): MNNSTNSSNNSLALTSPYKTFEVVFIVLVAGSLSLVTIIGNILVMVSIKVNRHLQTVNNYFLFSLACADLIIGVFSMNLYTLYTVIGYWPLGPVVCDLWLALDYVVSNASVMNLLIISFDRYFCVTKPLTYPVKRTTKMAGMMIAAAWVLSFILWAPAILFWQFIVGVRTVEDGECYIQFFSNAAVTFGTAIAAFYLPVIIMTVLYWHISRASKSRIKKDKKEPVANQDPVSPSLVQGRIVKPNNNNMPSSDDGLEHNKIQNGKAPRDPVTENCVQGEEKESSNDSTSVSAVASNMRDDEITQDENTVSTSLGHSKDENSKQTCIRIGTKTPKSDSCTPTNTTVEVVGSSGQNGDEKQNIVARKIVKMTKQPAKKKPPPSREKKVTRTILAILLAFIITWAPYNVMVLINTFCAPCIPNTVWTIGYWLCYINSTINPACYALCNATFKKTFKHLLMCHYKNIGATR

[23] = molecular target: Muscarinic acetylcholine receptor M3 (Homo sapiens) (UniProt P20309); conditions: Compound concentration 10.0 uM
[24] = molecular target: GABA-A receptor; anion channel (Rattus norvegicus) (UniProt O09028+P15431+P18506+P18508+P19969+P20236+P23574+P23576+P28471+P28473+P30191+P62813+P63079+P63138+Q91ZM7+Q9ES14); conditions: Compound concentration 10.0 uM

Histamine H2 receptor (Homo sapiens), sequence (P25021 whole entry): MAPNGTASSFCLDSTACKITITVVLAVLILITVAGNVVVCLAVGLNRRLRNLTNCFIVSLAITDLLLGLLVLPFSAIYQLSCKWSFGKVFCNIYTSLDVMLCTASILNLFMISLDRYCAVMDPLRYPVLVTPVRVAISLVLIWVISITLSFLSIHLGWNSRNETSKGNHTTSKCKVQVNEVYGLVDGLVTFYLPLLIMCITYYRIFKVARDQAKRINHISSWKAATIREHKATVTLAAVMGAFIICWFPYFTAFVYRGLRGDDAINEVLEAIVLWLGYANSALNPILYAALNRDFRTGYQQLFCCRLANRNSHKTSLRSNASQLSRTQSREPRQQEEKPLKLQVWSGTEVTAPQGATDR
5-hydroxytryptamine receptor 2B (Homo sapiens), sequence (P41595 whole entry): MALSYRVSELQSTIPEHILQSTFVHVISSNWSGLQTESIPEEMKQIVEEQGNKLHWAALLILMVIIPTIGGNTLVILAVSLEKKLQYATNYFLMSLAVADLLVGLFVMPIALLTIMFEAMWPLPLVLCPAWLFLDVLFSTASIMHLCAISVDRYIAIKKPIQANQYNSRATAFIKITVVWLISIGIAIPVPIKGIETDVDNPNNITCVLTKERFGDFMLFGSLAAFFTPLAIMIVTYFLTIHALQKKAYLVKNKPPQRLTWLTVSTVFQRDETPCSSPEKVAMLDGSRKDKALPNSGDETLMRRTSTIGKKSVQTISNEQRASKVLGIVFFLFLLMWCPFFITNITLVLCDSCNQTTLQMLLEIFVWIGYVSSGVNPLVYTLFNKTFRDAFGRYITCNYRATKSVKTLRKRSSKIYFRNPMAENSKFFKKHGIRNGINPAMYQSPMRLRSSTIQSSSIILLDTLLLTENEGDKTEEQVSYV
Muscarinic acetylcholine receptor M3 (Homo sapiens), sequence (P20309 whole entry, looked up): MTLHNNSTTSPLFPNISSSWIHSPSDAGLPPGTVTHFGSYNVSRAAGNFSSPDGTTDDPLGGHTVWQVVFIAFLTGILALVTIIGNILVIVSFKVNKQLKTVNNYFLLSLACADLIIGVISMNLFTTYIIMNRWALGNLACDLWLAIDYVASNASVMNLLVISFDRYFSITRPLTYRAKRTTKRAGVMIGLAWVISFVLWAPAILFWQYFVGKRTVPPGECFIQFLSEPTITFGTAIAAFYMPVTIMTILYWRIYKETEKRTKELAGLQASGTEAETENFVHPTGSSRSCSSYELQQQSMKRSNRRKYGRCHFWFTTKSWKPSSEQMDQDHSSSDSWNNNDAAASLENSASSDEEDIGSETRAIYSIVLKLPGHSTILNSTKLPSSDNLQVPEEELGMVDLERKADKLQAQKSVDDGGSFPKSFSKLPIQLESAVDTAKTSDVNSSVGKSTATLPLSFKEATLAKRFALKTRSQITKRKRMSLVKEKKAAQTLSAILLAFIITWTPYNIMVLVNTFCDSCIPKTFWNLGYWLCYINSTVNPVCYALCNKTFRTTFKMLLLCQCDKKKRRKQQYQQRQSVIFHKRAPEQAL
5-hydroxytryptamine receptor 7 (Homo sapiens), sequence (P34969 whole entry): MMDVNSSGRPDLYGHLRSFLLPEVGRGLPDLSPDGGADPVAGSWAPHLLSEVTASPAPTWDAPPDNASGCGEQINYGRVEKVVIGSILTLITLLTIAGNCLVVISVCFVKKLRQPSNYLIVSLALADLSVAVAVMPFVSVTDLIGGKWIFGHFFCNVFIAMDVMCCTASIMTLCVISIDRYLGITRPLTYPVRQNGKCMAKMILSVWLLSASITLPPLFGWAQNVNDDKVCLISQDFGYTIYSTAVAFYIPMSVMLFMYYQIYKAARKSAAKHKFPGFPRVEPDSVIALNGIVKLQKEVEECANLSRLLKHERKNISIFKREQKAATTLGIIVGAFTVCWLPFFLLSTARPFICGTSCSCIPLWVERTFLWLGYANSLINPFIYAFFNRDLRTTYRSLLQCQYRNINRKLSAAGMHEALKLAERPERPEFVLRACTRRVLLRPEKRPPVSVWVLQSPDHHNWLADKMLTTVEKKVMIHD
Cannabinoid receptor 2 (Homo sapiens), sequence (P34972 whole entry): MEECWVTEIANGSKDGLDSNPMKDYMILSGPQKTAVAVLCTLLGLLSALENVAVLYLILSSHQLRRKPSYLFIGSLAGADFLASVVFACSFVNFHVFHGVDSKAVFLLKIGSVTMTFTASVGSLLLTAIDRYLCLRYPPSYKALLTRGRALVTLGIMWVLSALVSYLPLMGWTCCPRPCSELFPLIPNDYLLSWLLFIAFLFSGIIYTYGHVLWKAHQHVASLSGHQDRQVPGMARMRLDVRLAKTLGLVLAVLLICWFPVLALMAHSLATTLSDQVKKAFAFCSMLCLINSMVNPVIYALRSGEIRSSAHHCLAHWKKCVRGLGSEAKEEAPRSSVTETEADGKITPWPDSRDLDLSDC
Beta-2 adrenergic receptor (Homo sapiens), sequence (P07550 whole entry, looked up): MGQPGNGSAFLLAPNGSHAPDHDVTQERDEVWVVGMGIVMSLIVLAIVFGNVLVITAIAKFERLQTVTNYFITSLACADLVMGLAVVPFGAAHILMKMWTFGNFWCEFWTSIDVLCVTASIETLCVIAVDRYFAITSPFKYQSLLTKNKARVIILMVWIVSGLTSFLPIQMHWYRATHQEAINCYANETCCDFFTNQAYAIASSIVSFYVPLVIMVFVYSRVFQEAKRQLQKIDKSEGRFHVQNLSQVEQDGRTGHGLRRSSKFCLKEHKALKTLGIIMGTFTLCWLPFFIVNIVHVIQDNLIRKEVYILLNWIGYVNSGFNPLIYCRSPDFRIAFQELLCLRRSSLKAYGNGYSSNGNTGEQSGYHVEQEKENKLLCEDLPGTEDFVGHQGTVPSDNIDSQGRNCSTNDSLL
Adenosine receptor A2a (Homo sapiens), sequence (P29274 whole entry): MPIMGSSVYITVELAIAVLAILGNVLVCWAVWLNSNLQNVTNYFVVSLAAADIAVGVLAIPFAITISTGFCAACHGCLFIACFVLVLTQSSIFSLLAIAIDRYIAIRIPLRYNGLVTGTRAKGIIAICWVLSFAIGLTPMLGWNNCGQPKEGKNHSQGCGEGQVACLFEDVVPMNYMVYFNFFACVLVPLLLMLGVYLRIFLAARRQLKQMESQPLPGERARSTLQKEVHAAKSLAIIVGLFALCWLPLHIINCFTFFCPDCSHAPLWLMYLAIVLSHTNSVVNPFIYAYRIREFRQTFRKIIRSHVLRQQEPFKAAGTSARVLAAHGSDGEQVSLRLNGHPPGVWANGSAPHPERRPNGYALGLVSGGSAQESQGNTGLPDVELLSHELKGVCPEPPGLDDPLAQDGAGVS
Cannabinoid receptor 1 (Homo sapiens), sequence (P21554 whole entry): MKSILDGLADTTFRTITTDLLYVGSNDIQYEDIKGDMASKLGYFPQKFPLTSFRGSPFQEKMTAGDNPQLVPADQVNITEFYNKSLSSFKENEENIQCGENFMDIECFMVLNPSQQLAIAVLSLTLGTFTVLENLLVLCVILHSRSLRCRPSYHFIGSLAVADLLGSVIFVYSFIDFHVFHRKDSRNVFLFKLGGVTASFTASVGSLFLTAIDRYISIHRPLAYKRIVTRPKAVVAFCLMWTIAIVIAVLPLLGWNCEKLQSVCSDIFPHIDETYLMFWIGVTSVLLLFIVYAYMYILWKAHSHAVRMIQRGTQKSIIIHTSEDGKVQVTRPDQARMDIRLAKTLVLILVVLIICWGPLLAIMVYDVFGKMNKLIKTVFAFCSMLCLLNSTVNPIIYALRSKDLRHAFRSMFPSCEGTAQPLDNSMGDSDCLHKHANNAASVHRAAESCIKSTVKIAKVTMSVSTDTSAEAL
Delta-type opioid receptor (Homo sapiens), sequence (P41143 whole entry): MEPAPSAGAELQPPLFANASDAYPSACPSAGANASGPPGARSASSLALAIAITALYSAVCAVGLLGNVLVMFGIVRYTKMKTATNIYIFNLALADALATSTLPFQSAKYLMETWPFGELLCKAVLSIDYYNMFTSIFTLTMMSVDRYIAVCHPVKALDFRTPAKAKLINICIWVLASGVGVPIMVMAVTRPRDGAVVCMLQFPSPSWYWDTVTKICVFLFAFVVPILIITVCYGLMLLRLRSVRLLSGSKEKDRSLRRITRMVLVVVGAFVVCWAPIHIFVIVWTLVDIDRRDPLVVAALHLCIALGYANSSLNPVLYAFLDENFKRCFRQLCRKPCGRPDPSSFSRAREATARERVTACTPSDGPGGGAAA
Endothelin-1 receptor (Homo sapiens), sequence (P25101 whole entry): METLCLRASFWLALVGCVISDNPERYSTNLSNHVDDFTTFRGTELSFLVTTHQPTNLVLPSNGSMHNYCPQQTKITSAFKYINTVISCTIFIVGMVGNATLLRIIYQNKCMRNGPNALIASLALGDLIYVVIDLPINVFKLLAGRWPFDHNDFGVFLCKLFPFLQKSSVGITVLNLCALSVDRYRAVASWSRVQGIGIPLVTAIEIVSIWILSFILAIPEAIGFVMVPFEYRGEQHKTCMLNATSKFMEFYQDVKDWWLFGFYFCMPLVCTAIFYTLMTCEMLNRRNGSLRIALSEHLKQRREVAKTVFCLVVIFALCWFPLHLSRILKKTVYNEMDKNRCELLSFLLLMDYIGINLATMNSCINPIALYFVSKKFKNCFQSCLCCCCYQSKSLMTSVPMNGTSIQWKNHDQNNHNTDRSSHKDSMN
D(1A) dopamine receptor (Homo sapiens), sequence (P21728 whole entry): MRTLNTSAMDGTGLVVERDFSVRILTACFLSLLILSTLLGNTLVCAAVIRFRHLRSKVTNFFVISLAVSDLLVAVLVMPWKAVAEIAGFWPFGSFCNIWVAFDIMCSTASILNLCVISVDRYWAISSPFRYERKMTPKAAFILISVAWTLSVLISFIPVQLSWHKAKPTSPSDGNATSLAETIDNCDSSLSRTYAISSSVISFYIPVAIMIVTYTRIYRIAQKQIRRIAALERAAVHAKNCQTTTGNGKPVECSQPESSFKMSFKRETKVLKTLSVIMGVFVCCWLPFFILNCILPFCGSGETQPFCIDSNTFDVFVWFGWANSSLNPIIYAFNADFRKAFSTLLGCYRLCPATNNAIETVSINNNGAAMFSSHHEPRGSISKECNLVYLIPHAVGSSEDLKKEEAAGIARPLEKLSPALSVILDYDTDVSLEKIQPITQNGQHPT

inhibition [16] | inhibition [17] | inhibition [18] | inhibition [19] | inhibition [20] | Compound | residual activity [1] | residual activity [2] | residual activity [3] | residual activity [4] | residual activity [5] | residual activity [6] | residual activity [7] | residual activity [8] | residual activity [9] | residual activity [10] | residual activity [11] | residual activity [12] | residual activity [13] | residual activity [14] | residual activity [15] | further results
28.5% | 7.41% | -1.29% | -1.31% | -9.96% | CCn1c(=O)c(C)cn(Cc2nnc(-c3ccc(F)c(OC)c3F)s2)c1=O | 104% | 44% | 81% | 117% | 105% | 110% | 99% | 97% | 86% | 103% | 104% | 103% | 107% | 97% | 103% | inhibition [21]: -8.57%; inhibition [22]: -0.14%; inhibition [23]: -1.37%; inhibition [24]: 19.9%
-8.82% | 10.6% | 5.8% | -3.03% | 3.99% | CCn1c(=O)c(C)cn(Cc2nnc(-c3ccc(F)c(O)c3F)s2)c1=O | 101% | 49% | 103% | 99% | 99% | 98% | 78% | 105% | 82% | 95% | 97% | 104% | 109% | 106% | 100% | inhibition [21]: -6.48%; inhibition [22]: -5.24%; inhibition [23]: -3.96%; inhibition [24]: 27.6%
